Values quoted from earlier work in patent US8486889B1, “Composition and method for the treatment and prevention of endothelial dysfunction” (Advanced Medical Instruments, priority 2001, dated 2013).
One block for each molecule: values may come before it.

Key:
[1] = rats, intragastric indomethacin, pre-treatment with zinc sulphate
[2] = taken orally, versus placebo
[3] = 500 mg/day, after one month
[4] = Vioxx compared to naproxen
[5] = those on ASA
[6] = 325 mg ASA every other day
[7] = not given; remark: listed apart in the source
[8] = in a fast dissolving tablet
[9] = aspirin use
[10] = in vivo
[11] = glucosamine combined with an NSAID, activity preserved
[12] = rabbit
[13] = simultaneous administration of zinc
[14] = 600 mg per day, double-blind trial

Molecule: O=S(=O)([O-])[O-].[Zn+2] [zinc sulphate]
- mucosal ulcerations [1]: completely prevented
- rate of gastric ulcer healing [2]: three times the rate of a placebo

Molecule: O=C1O[C@H]([C@@H](O)CO)C(O)=C1O [Ascorbic acid]
- lowering of systolic blood pressure [3]: 10%

- solubility: high lipid and aqueous solubility
Molecule: COc1ccc2[nH]cc(CCNC(C)=O)c2c1 [Melatonin]

- risk of myocardial infarction [4]: four fold risk
Molecule: CS(=O)(=O)c1ccc(C2=C(c3ccccc3)C(=O)OC2)cc1 [Vioxx, rofecoxib]

Molecule: CC(=O)Oc1ccccc1C(=O)O [ASA, Acetylsalicylic acid]
- fewer strokes [5]: 42%
- reduction in the incidence of subsequent myocardial infarction, stroke, and death from cardiovascular causes ([6]; about 5 years): 25%
- reduction in the incidence of first myocardial infarction ([6]; about 5 years, 22,000 US male physicians): 44%
- time to reach blood levels and inhibit platelet activity ([7]; chewing the tablet): 5 min
- time to reach peak blood levels ([7]; in vivo): 30 min
- ASA absorbed by the buccal mucosa [8]: 16-35%
- reduction of the risk of breast cancer [9]: 20%
- reduction of the risk of colorectal cancer [9]: 50%
- reduction of the risk of lung cancer [9]: 30%
- reduction of the risk of prostate cancer [9]: 50%

- absorbed in the GI tract [10]: 90%
- solubility: very soluble in water
Molecule: N[C@H]1C(O)O[C@H](CO)[C@@H](O)[C@@H]1O (stereo partly shown) [Glucosamine]
- factor of decrease of the amount of NSAID required to produce an antiexudative result [11]: 2-2.7 times

- time to peak of effectiveness ([12]; 2.5 mg sublingual tablet): 20.8 min
- time to peak effectiveness ([12]; injection): 15.8 min
Molecule: CNC[C@H](O)c1ccc(O)c(O)c1 [epinephrine, Epinephrine]

Molecule: [Zn] [zinc]
- salicylate-induced hearing loss [13]: completely prevented

Molecule: Vitamin E
- endothelial-dependent dilation of the brachial artery [14]: showed improvement
